# Assay results: US20220403048A1, “BINDING MOLECULES TO ARGINASE II [ARG2]” (Cancer Research Technology Limited, priority 2019, published 2022)
# Changes are numbered by the printed parent chain. Like-named read-outs stand apart in the source and are kept apart here. Marks after values point to notes of the source that are not given here.
# Experiments:
# trimeric human ARG2 = biological target: T1, trimeric human ARG2 (Homo sapiens, UniProt P78540); test: Human trimeric ARG2 enzyme inhibition assay (urea production); type: biochemical
# T1 construct: human ARG2 (aa23-354); His10 (C); made in house; host or cells: E. coli BL21 (DE3)
# T1 sequence (P78540 23-354): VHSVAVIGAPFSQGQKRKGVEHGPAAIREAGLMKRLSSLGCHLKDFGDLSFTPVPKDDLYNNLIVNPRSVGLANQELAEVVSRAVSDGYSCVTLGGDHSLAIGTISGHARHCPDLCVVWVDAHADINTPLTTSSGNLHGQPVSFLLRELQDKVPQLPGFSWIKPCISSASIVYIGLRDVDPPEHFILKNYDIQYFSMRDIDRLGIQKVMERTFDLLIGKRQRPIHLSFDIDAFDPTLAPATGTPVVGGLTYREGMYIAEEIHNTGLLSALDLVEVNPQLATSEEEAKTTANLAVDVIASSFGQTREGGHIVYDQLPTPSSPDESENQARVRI
# Description: Unpurified anti-ARG2 scFv fragments from periplasmic preparations were screened in an ARG2 enzyme inhibition assay using a Pherastar plate reader (BMG Labtech, Germany). In this assay, the ability of unpurified scFv to inhibit the enzymatic activity of trimeric ARG2 was determined by measuring the production of urea, the product of L-arginine turnover by ARG2.
# Selection outputs were screened as unpurified bacterial periplasmic extracts containing scFv, prepared in 200 mM TES buffer pH 7.4, 0.5 mM EDTA and 0.5 M sucrose. 10 μl of unpurified scFv were added to a Greiner Bio-One® 384 well assay plate (Greiner Bio-one, UK; cat: 781901). […]
# Urea was detected by the simultaneous addition of equal volumes of O-Phthaldialdehyde (1.5 mM O-Phthaldialdehyde, 7% H2SO4, 0.03% Brij L23) and N-(1-Napthyl)ethylenediamine (1.66 mM N-(1-Napthyl)ethylenediamine, 81 mM Boric acid, 21% H2SO4, 0.03% Brij L23) followed by an 18 minute incubation at room temperature before the colorimetric product was quantified on the Pherastar by measuring absorbance at 505 nm. […]
# Data were analysed by calculating % maximum (max) control for each sample using the 505 nm absorbance data. % max control was determined according to equation 2. […]
# Data were again analysed by calculating % Max control values for each sample. […]
# ARG2 [1] = biological target: T2, ARG2 (Homo sapiens, UniProt P78540); test: T cell proliferation assay (BrdU, 72 hours) with exogenous ARG2; type: cell-based; conditions: In Absence of rhARG2
# T2 sequence (P78540 23-354): T1 sequence (P78540 23-354)
# Description: (§1) This assay served to provide in vitro evidence of functional efficacy for each antibody.
# (§2) Briefly, Leukocyte cones (NHS Blood and Transplant, Watford, UK) underwent Ficoll Plaque (GE, Sweden; Cat: 17-1440-02) gradient separation, PBMC's were extracted and pan T cell population isolated by negative selection using the Human T Cell Enrichment Kit (Stemcell Technologies, France; Cat: 19051) according to the manufacturer's instructions.
# (§3) 40000 cells/well were seeded in complete growth media (RMPI 1640, 5% Human Serum Albumin) into a 96 well clear TC treated microplate (Greiner-Bio One, Germany; Cat: 655180). T Cells were activated by the addition of ImmunoCult CD3/CD28 (Stemcell Technologies, France; Cat: 10971) at a dilution of 1:40 directly into wells and the plate incubated 37° C., 5% CO2 for 45 minutes.
# (§4) To determine EC50's of test antibodies, a dilution series was created in sterile TBS at 8× the final assay concentration was added to the assay plate containing cells. Plate was incubated for 30 minutes at 37° C., 5% CO2.
# (§5) ARG2 was added to relevant wells of the plate at a final concentration of 15 μg/ml. The equivalent volume of ARG2 vehicle and test antibody vehicle was added to relevant control wells. […]
# (§6) Calculated data was expressed as % of control (Equation 3) and graphical plots were constructed using a four parameter fit and EC50's determined using model 205 in XLFit (IDBS, UK). […]
# monomeric ARG2 = biological target: T3, monomeric ARG2 (Homo sapiens, UniProt P78540, E275Q); test: Human monomeric ARG2 enzyme inhibition assay; type: biochemical; conditions: purified recombinant human IgG1, FIG. 5
# T3 construct: human ARG2 (aa23-354); His10 (C); made in house; host or cells: E. coli
# T3 sequence (P78540 23-354 E275Q): T1 sequence (P78540 23-354) with E253Q
# Description: ARG2 specific recombinant IgG1 were screened for their ability to inhibit enzymatic activity of monomeric ARG2. In this assay, the ability of ARG2 specific recombinant IgG1 to inhibit the enzymatic activity of monomeric ARG2 was determined by measuring the production of urea, the product of L-arginine turnover by monomeric ARG2.
# IC50 values were determined by testing a dilution series of the ARG2 specific recombinant IgG1, prepared in TBS.
# 10 μl of ARG2 specific recombinant IgG1 (dilution series) were added to a Greiner Bio-One® 384 well assay plate (Greiner Bio-one, UK; cat: 781901). […]
# Urea was detected by the simultaneous addition of equal volumes of O-Phthaldialdehyde (1.5 mM O-Phthaldialdehyde, 7% H2SO4, 0.03% Brij L23) and N-(1-Napthyl)ethylenediamine (1.66 mM N-(1-Napthyl)ethylenediamine, 81 mM Boric acid, 21% H2SO4, 0.03% Brij L23) followed by an 18 minute incubation at room temperature before the colorimetric product was quantified on the Pherastar by measuring absorbance at 505 nm.
# ARG2 specific recombinant IgG1 were tested alongside N-Hydroxyl-L-Arginine (a small molecule competitive inhibitor of ARG2) as a positive control and NIP228 (irrelevant isotype control antibody) as a negative control. Data points were plotted and IC50 values determined using a four parameter fit in GraphPad Prism (FIG. 5).
# [2] = biological target: T4, THP-1 lysate derived human trimeric ARG2 (Homo sapiens, UniProt P78540); test: THP-1 lysate derived human ARG2 enzyme inhibition assay; type: biochemical
# T4 construct: expressed in transfected cells; host or cells: THP-1 cells overexpressing human ARG2 (cell lysate)
# T4 sequence (P78540 23-354): T1 sequence (P78540 23-354)
# Description: Anti-ARG2 IgGs were tested for their ability to inhibit mammalian expressed human ARG2 produced in transfected THP-1 cells. To do this cell lysates were prepared from THP-1 cells overexpressing human ARG2 and from wild type THP-1 cells. 350 million cells were suspended in 3 ml tris buffered saline (25 mM Tris+150 mM sodium chloride in dH2O, pH 7.4) and cell lysates prepared by passing through a 26G needle 20 times. A BCA assay was used to measure the protein concentration in the lysate. […] Antibodies were tested alongside N-Hydroxyl-L-Arginine (a small molecule competitive inhibitor of ARG2) as a positive control and CEA6 (irrelevant isotype control antibody) as a negative control. Data points were plotted and IC50 values determined using a four parameter fit in GraphPad Prism (FIG. 11, Table 13).
# Anti-ARG2 IgGs were tested for their ability to inhibit to mammalian expressed human ARG2 produced in transfected THP-1 cells. […] Urea detection reagents, O-Phthaldialdehyde (1.5 mM O-Phthaldialdehyde, 7% H2SO4, 0.03% Brij L23) and N-(1-Napthyl)ethylenediamine (1.66 mM N-(1-Napthyl)ethylenediamine, 81 mM Boric acid, 21% H2SO4, 0.03% Brij L23) were mixed 1:1 just prior to use and 80 μl/well were added, incubated for 1 hour at room temperature and absorbance at 505 nm was read on a Pherastar plate reader. […]
# ARG2 [3] = biological target: T2, ARG2; test: T cell proliferation assay (BrdU, 72 hours) with exogenous ARG2; type: cell-based; set-up: human ARG2 (aa23-354); His10 (C); made in house; host or cells: E. coli BL21 (DE3); conditions: In Presence of rhARG2, NHLA value at 0.444 mM
# Description: as §1, §2, §3, §4, §5, §6
# both ARG isoforms = conditions: cited from earlier work; for Kd: both ARG isoforms at physiologic pH, read-out: binding constant (KD)
smiles,measurement,setting,value
"NC(=NO)NCCC[C@H](N)C(=O)O [NHLA, NG-Hydroxy-L-arginine, reference compound]",inhibition of the activity of human trimeric ARG2,"trimeric human ARG2; purified recombinant human IgG1, FIG. 3",able to inhibit
same,inhibition of the activity of human trimeric ARG2,"trimeric human ARG2; purified scFv, FIG. 2",able to inhibit
same,EC50,ARG2 [1],< 1800 nM
same,Maximum % Proliferation,ARG2 [1],80%
same,inhibition of the activity of human monomeric ARG2,monomeric ARG2,able to inhibit
same,IC50,"[2]; methods of section 2.8, FIG. 16, read-out: THP-1 ARG2 EIA IC50",12900 nM
same,IC50,"[2]; recombinant human IgG1, lysate without plasma (section 3.3), FIG. 13, read-out: THP-1 lysate ARG2 EIA IC50",4750 nM
same,Maximum % Proliferation,ARG2 [3],49* %
"N[C@@H](CCCCB(O)O)C(=O)O [ABH, 2(S)-amino-6-boronohexanoic acid]",Kd,both ARG isoforms,~300 nM
"N[C@@H](CSCCB(O)O)C(=O)O [BEC, S-(2-boronoethyl)-L-cysteine]",Kd,both ARG isoforms,~300 nM
N=C(N)NCCC[C@H](N)C(=O)O [L-arginine],Km,both ARG isoforms; natural substrate of arginase,5 mM
